Assay results taken from patent US20260042755A1, “GPR6 INVERSE AGONISTS” (MapLight Therapeutics, Inc., priority 2022, published 2026).
Blank lines part the entries; values can stand above or below the molecule they belong to.

How the values were obtained:
GPR6 = biological target: T1, GPR6 (Homo sapiens, UniProt P46095); assay: GPR6 antagonist functional cAMP assay (LANCE Ultra cAMP TR-FRET, CHO cells stably expressing GPR6); type: cell-based
T1 construct: expressed in transfected cells; host or cells: CHO cells
T1 sequence (P46095 whole entry): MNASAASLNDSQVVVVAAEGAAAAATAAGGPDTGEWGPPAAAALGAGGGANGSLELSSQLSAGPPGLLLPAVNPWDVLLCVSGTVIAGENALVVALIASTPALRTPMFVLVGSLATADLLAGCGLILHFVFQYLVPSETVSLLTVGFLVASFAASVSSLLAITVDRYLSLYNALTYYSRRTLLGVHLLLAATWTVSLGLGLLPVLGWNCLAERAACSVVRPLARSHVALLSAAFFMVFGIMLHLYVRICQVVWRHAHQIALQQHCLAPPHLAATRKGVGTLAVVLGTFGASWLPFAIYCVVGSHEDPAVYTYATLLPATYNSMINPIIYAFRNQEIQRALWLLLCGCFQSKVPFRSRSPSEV
Method in brief: (§1)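 Cells in Krebs-Ringer buffer with 0.1% BSA and 150 μM Ro 20-1724 PDE inhibitor were exposed to compounds for 45 min at 37 °C (0.1% DMSO). cAMP was read by TR-FRET at 665 nm; IC50s came from 4-parameter fits normalized to DMSO and reference compound.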

GPR3 = biological target: T2, GPR3 (Homo sapiens, UniProt P46089); assay: GPR3 antagonist functional cAMP assay (LANCE Ultra cAMP TR-FRET, CHO cells stably expressing GPR3); type: cell-based
T2 construct: expressed in transfected cells; host or cells: CHO cells
T2 sequence (P46089 whole entry, species assumed): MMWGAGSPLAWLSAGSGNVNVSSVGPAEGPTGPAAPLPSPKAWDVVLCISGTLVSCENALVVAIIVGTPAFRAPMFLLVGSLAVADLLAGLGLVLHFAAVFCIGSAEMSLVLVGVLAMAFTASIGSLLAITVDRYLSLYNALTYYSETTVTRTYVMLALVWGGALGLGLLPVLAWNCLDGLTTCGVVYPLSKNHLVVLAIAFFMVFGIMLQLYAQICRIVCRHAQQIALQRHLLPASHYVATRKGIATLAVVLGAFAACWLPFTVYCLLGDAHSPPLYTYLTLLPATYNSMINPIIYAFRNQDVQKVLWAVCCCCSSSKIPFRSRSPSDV
Method in brief: as §1

[1] = procedure as described in Example 24
[2] = CHO cells stably expressing GPR6, cAMP assay
[3] = CHO cells stably expressing GPR3, cAMP assay
[4] = CHO cells stably expressing GPR6, cAMP assay (Example 24)
[5] = CHO cells stably expressing GPR3, cAMP assay (Example 24)

IC50 (GPR6; procedure of Example 24): 1 to 30 µM
IC50 (GPR3; procedure of Example 24): 1 to 30 µM
SMILES: CC(=O)N1CCc2nc(N3CCN(C(C)c4ccc(F)cc4F)CC3)c(-c3cnn(C)c3)nc2C1 (centres unmarked) [Compound 729, 1-(2-{4-[1-(2,4-difluorophenyl)ethyl]-1-piperazinyl}-3-(1-methyl-4-pyrazolyl)-5,6,7,8-tetrahydro-1,4,6-triaza-6-naphthyl)-1-ethanone]

IC50 (GPR6; procedure of Example 24): 0.1 to 1 µM
IC50 (GPR3; procedure of Example 24): 1 to 30 µM
SMILES: CC(C)(O)C(C)(O)c1cc2nc(-c3cnn(CF)c3)c(N3CCC(Oc4ccc(F)cc4F)CC3)nc2cn1 (centres unmarked) [Compound 661, 2-{3-[4-(2,4-difluorophenoxy)-1-piperidyl]-2-[1-(fluoromethyl)-4-pyrazolyl]-1,4,6-triaza-7-naphthyl}-3-methyl-2,3-butanediol]

IC50 (GPR6; procedure of Example 24): 0.1 to 1 µM
IC50 (GPR3; procedure of Example 24): 1 to 30 µM
SMILES: CC(C)(O)C(C)(O)c1cc2nc(-c3cnn(C(F)F)c3)c(N3CCN(Cc4ccccc4F)CC3)nc2cn1 (centres unmarked) [Compound 684, 2-{2-[1-(difluoromethyl)-4-pyrazolyl]-3-{4-[(o-fluorophenyl)methyl]-1-piperazinyl}-1,4,6-triaza-7-naphthyl}-3-methyl-2,3-butanediol]

IC50 (GPR6; [1]): 0.1 to 1 µM
IC50 (GPR3; [1]): 1 to 30 µM
SMILES: CC(=O)N1CCc2nc(N3CCC(Oc4ccc(F)cc4F)CC3)c(-c3cccc(C(F)(F)F)n3)nc2C1 [Compound 50, 1-{2-[4-(2,4-difluorophenoxy)piperidin-1-yl]-3-[6-(trifluoromethyl)pyridin-2-yl]-5H,6H,7H,8H-pyrido[3,4-b]pyrazin-6-yl}ethan-1-one]

IC50 (GPR6; procedure of Example 24): 1 to 30 µM
IC50 (GPR3; procedure of Example 24): 1 to 30 µM
SMILES: COC(=O)/C=C/c1cc2nc(N3CCC(Oc4ccc(F)cc4F)CC3)c(-c3cnn(C)c3)nc2cn1 [Compound 745, methyl 3-{2-[4-(2,4-difluorophenoxy)-1-piperidyl]-3-(1-methyl-4-pyrazolyl)-1,4,6-triaza-7-naphthyl}acrylate]

IC50 (GPR6; [2]): 1 to 30 µM
IC50 (GPR3; [3]): ≥ 30 µM
SMILES: Cn1cc(-c2nc3ccc(C(O)C(C)(C)O)nc3nc2N2CCN(Cc3ccc(F)cc3F)CC2)cn1 (centres unmarked) [Compound 569, 1-(3-{4-[(2,4-difluorophenyl)methyl]-1-piperazinyl}-2-(1-methyl-4-pyrazolyl)-1,4,5-triaza-6-naphthyl)-2-methyl-1,2-propanediol]

IC50 (GPR6; [1]): 1 to 30 µM
IC50 (GPR3; [1]): 1 to 30 µM
SMILES: CC(=O)N1CCc2nc(N3CCC(Oc4ccc(F)cc4F)CC3)c(-c3cncc(=O)[nH]3)nc2C1 [Compound 12, 6-{6-acetyl-2-[4-(2,4-difluorophenoxy)piperidin-1-yl]-5H,6H,7H,8H-pyrido[3,4-b]pyrazin-3-yl}-1,2-dihydropyrazin-2-one]

IC50 (GPR6; [2]): ≥ 30 µM
IC50 (GPR3; [3]): ≥ 30 µM
SMILES: CC(=O)N1CCc2nc(N3CCN(Cc4cccn(C)c4=O)CC3)c(-c3cnn(C)c3)nc2C1 [Compound 534, 3-({4-[6-acetyl-3-(1-methyl-4-pyrazolyl)-5,6,7,8-tetrahydro-1,4,6-triaza-2-naphthyl]-1-piperazinyl}methyl)-1-methyl-2(1H)-pyridinone]

IC50 (GPR6; [4]): 1 to 30 µM
IC50 (GPR3; [5]): 0.1 to 1 µM
SMILES: COc1ccnc(-c2nc3c(nc2N2CCC(Oc4ccc(F)cc4F)CC2)CCN(C(C)=O)C3)n1 [Compound 56, 1-{2-[4-(2,4-difluorophenoxy)piperidin-1-yl]-3-(4-methoxypyrimidin-2-yl)-5H,6H,7H,8H-pyrido[3,4-b]pyrazin-6-yl}ethan-1-one]

IC50 (GPR6; [4]): 0.1 to 1 µM
IC50 (GPR3; [5]): 1 to 30 µM
SMILES: Fc1ccc(OC2CCN(c3nc4cnccc4nc3-c3cn[nH]c3)CC2)c(F)c1 [Compound 100, 4-(2,4-difluorophenoxy)-1-[2-(1H-pyrazol-4-yl)pyrido[3,4-b]pyrazin-3-yl]piperidine]

IC50 (GPR6; [4]): 1 to 30 µM
IC50 (GPR3; [5]): 1 to 30 µM
SMILES: CC(C)OC(=O)N1CCc2nc(N3CCC(Oc4ccc(F)cc4F)CC3)c(-c3cnn(C4CCCCO4)c3)nc2C1 (centres unmarked) [Compound 156, propan-2-yl 2-[4-(2,4-difluorophenoxy)piperidin-1-yl]-3-[1-(oxan-2-yl)-1H-pyrazol-4-yl]-5H,6H,7H,8H-pyrido[3,4-b]pyrazine-6-carboxylate]

IC50 (GPR6; [4]): 0.1 to 1 µM
IC50 (GPR3; [5]): 1 to 30 µM
SMILES: CC(=O)N1CCc2nc(N3CCC(Oc4ccc(F)cc4F)CC3)c(-c3cnn(CC#N)c3)nc2C1 [Compound 81, 2-(4-{6-acetyl-2-[4-(2,4-difluorophenoxy)piperidin-1-yl]-5H,6H,7H,8H-pyrido[3,4-b]pyrazin-3-yl}-1H-pyrazol-1-yl)acetonitrile]

IC50 (GPR6; [4]): 0.1 to 1 µM
IC50 (GPR3; [5]): 1 to 30 µM
SMILES: CC(=O)N1CCc2nc(N3CCC(Oc4ccc(F)cc4F)CC3)c(-c3c[nH]c(C)n3)nc2C1 [Compound 116, 1-{2-[4-(2,4-difluorophenoxy)piperidin-1-yl]-3-(2-methyl-1H-imidazol-4-yl)-5H,6H,7H,8H-pyrido[3,4-b]pyrazin-6-yl}ethan-1-one]

IC50 (GPR6; [4]): 1 to 30 µM
IC50 (GPR3; [5]): 1 to 30 µM
SMILES: COc1cncc(-c2nc3cnc(Cl)cc3nc2N2CCN(Cc3ccc(F)cc3F)CC2)n1 [Compound 159, 2-(7-chloro-2-{4-[(2,4-difluorophenyl)methyl]piperazin-1-yl}pyrido[3,4-b]pyrazin-3-yl)-6-methoxypyrazine]

IC50 (GPR6; [2]): 1 to 30 µM
IC50 (GPR3; [3]): 1 to 30 µM
SMILES: CC(=O)N1CCc2nc(N3CCC(Oc4ccc(C#N)cc4F)CC3)c(-c3cnn(C)c3)nc2C1 [Compound 500, 4-{1-[6-acetyl-3-(1-methyl-4-pyrazolyl)-5,6,7,8-tetrahydro-1,4,6-triaza-2-naphthyl]-4-piperidyloxy}-3-fluorobenzonitrile]

IC50 (GPR6; [4]): 1 to 30 µM
IC50 (GPR3; [5]): 1 to 30 µM
SMILES: CC(=O)N1CCc2nc(N3CCC(Oc4ccc(F)cc4F)CC3)c(-c3cnn(CCN(C)C)c3)nc2C1 [Compound 138, 1-{2-[4-(2,4-difluorophenoxy)piperidin-1-yl]-3-{1-[2-(dimethylamino)ethyl]-1H-pyrazol-4-yl}-5H,6H,7H,8H-pyrido[3,4-b]pyrazin-6-yl}ethan-1-one]

IC50 (GPR6; [4]): 0.1 to 1 µM
IC50 (GPR3; [5]): 1 to 30 µM
SMILES: N#CCN1CCc2nc(N3CCC(Oc4ccc(F)cc4F)CC3)c(-c3cn[nH]c3)nc2C1 [Compound 119, 2-{2-[4-(2,4-difluorophenoxy)piperidin-1-yl]-3-(1H-pyrazol-4-yl)-5H,6H,7H,8H-pyrido[3,4-b]pyrazin-6-yl}acetonitrile]

IC50 (GPR6; procedure of Example 24): 0.1 to 1 µM
IC50 (GPR3; procedure of Example 24): 1 to 30 µM
SMILES: CC(C)(O)[C@@H](O)c1cc2nc(N3CCN(Cc4ccccc4F)CC3)c(-c3cnn(C(F)F)c3)nc2cn1 (single isomer, unassigned) [Compound 613]

IC50 (GPR6; procedure of Example 24): 0.1 to 1 µM
IC50 (GPR3; procedure of Example 24): 0.1 to 1 µM
SMILES: COC[C@@](C)(O)c1cc2nc(-c3cnn(C)c3)c(N3CCC(Oc4ccc(F)cc4F)CC3)nc2cn1 (single isomer, unassigned) [Compound 688]

IC50 (GPR6; [2]): 0.1 to 1 µM
IC50 (GPR3; [3]): 1 to 30 µM
SMILES: CC(C)(O)C(O)c1cc2nc(N3CCN(Cc4ccccc4F)CC3)c(-c3cnn(CF)c3)nc2cn1 (centres unmarked) [Compound 606, 1-{3-[1-(fluoromethyl)-4-pyrazolyl]-2-{4-[(o-fluorophenyl)methyl]-1-piperazinyl}-1,4,6-triaza-7-naphthyl}-2-methyl-1,2-propanediol]

IC50 (GPR6; [4]): 1 to 30 µM
IC50 (GPR3; [5]): 1 to 30 µM
SMILES: CCOc1cncc(-c2nc3c(nc2N2CCC(Oc4ccc(F)cc4F)CC2)CCN(C(C)=O)C3)n1 [Compound 233, 1-{2-[4-(2,4-difluorophenoxy)piperidin-1-yl]-3-(6-ethoxypyrazin-2-yl)-5H,6H,7H,8H-pyrido[3,4-b]pyrazin-6-yl}ethan-1-one]

IC50 (GPR6; [4]): 0.1 to 1 µM
IC50 (GPR3; [5]): 1 to 30 µM
SMILES: Fc1ccc(OC2CCN(c3nc4c(nc3-c3cn[nH]c3)CN(C3COC3)CC4)CC2)c(F)c1 [Compound 199, 4-(2,4-difluorophenoxy)-1-[6-(oxetan-3-yl)-3-(1H-pyrazol-4-yl)-5H,6H,7H,8H-pyrido[3,4-b]pyrazin-2-yl]piperidine]

IC50 (GPR6; [2]): < 0.1 µM
IC50 (GPR3; [3]): 1 to 30 µM
SMILES: CC(C)(O)C(O)c1cc2nc(-c3cnn(C(F)F)c3)c(N3CCC(Oc4ccc(F)cc4F)CC3)nc2cn1 (single isomer, unassigned) [Compound 583]

IC50 (GPR6; [4]): 1 to 30 µM
IC50 (GPR3; [5]): 1 to 30 µM
SMILES: Cn1cc(-c2nc3cnc(OCCO)cc3nc2N2CCC(Oc3ccc(F)cc3F)CC2)cn1 [Compound 399, 2-({2-[4-(2,4-difluorophenoxy)piperidin-1-yl]-3-(1-methyl-1H-pyrazol-4-yl)pyrido[3,4-b]pyrazin-7-yl}oxy)ethan-1-ol]

IC50 (GPR6; [4]): 0.1 to 1 µM
IC50 (GPR3; [5]): 1 to 30 µM
SMILES: CC(=O)N1CCc2nc(N3CCC(Oc4ccc(F)cc4F)CC3)c(-c3cccc(-c4cn[nH]c4)n3)nc2C1 [Compound 166, 1-{2-[4-(2,4-difluorophenoxy)piperidin-1-yl]-3-[6-(1H-pyrazol-4-yl)pyridin-2-yl]-5H,6H,7H,8H-pyrido[3,4-b]pyrazin-6-yl}ethan-1-one]

IC50 (GPR6; [4]): ≥ 30 µM
IC50 (GPR3; [5]): 1 to 30 µM
SMILES: CC(=O)N1CCc2nc(N3CCC(C(=O)N(C)c4ccc(F)cc4)C3)c(-c3cnn(C)c3)nc2C1 (centres unmarked) [Compound 385, 1-[6-acetyl-3-(1-methyl-1H-pyrazol-4-yl)-5H,6H,7H,8H-pyrido[3,4-b]pyrazin-2-yl]-N-(4-fluorophenyl)-N-methylpyrrolidine-3-carboxamide]

IC50 (GPR6; procedure of Example 24): 1 to 30 µM
IC50 (GPR3; procedure of Example 24): 1 to 30 µM
SMILES: COc1ccc(C(=O)N2CCN(c3nc4c(nc3-c3cnn(C)c3)CN(C(C)=O)CC4)CC2)nc1 [Compound 284, 1-{2-[4-(5-methoxypyridine-2-carbonyl)piperazin-1-yl]-3-(1-methyl-1H-pyrazol-4-yl)-5H,6H,7H,8H-pyrido[3,4-b]pyrazin-6-yl}ethan-1-one]

IC50 (GPR6; [2]): ≥ 30 µM
IC50 (GPR3; [3]): ≥ 30 µM
SMILES: CC(=O)N1CCc2nc(N3CCN(Cc4ccc(=O)[nH]c4)CC3)c(-c3cnn(C)c3)nc2C1 [Compound 532, 5-({4-[6-acetyl-3-(1-methyl-4-pyrazolyl)-5,6,7,8-tetrahydro-1,4,6-triaza-2-naphthyl]-1-piperazinyl}methyl)-2(1H)-pyridinone]
